Broadly, the IC50 is the midpoint of a concentration-inhibition curve.

SMILES strings stand for the structures.

The target of experiment [1] is T1, A2A receptor (Homo sapiens, UniProt P29274).
T1 construct: host or cells: HEK-293
Put plainly: A2aR antagonism IC50, cAMP TR-FRET (Lance Ultra) in HEK-293 cells, NECA as agonist.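 Further: compounds tested from 10 µM down to 0.08 nM in buffer with Rolipram at room temperature, TR-FRET cAMP signal read 1 h after adding Eu-cAMP tracer and ULight anti-cAMP.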 The class given is cell-based. The conditions noted are these: A2AR IC50 (nM) (@5 nM NECA), HEK-293 cells expressing A2A receptor; agonist NECA 5 nM (EC90); inhibition of cAMP. In general terms: Time-resolved FRET reads energy transfer from a long-lived donor to a nearby acceptor.
Description: (§1) Adenosine A2A receptors and Adenosine A2B receptors induce the production of cAMP when activated/stimulated by an agonist like adenosine or 5′-(N-Ethylcarboxamido) adenosine (NECA). A Time-Resolved Fluorescence Energy Transfer (TR-FRET) assay was used to show the inhibition of this cAMP production in HEK cells upon treatment with compounds of the Formula I of the present disclosure.
(§2) HEK-293 cells expressing A2A receptor (#ES-011-C) or A2B receptor (#ES 013-C) were obtained from PerkinElmer. Cells were maintained in DMEM medium supplemented with 10% FBS and 200 μg/mL of G418 at 37° C. and 5% CO2. The cells were cultured in antibiotic free medium for a period of 16-20 hours prior to the assay. All subsequent steps of the assay are performed at room temperature (22-24° C.). The cells were harvested at about 80% confluency by gentle flushing with PBS, recovered by centrifugation and resuspended in stimulation buffer at the concentration of 5.0×10^6 cells/mL.
(§3) The assays were conducted in a stimulation buffer containing 1×DMEM, 5 mM HEPES, 0.1% BSA stabilizer and 20-30 μM Rolipram. Serial dilutions of compounds were made in stimulation buffer to achieve a final concentration of high micromolar (10 μM to 0.08 nM) in the reaction volume of 10 μL. The total reaction volume was 10 μL (5 μL of cells, 2.5 μL of antagonist and 2.5 μL of agonist). The stimulation was ended, and the reaction completed by adding 5 μL of 4× Eu-cAMP tracer working solution and 5 μL of 4× ULight-anti-cAMP working solution. The TR-FRET signal was measured after 1-hour incubation using a Tecan M1000 reader.

Experiment [2] deals with T2, A2B receptor (Homo sapiens, UniProt P29275).
T2 sequence (P29275 1-332): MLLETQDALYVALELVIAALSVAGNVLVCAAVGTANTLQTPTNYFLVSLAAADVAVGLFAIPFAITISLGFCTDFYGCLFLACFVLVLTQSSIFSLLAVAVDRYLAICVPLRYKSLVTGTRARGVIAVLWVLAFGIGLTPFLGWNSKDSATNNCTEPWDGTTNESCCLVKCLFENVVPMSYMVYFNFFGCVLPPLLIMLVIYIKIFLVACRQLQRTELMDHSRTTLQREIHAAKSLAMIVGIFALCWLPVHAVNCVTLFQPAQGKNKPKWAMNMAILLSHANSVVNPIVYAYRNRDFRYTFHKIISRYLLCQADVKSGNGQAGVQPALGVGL
The experiment can be described thus: A2bR antagonism IC50, cAMP TR-FRET (Lance Ultra) in HEK-293 cells, NECA as agonist. The conditions noted are these: HEK-293 cells expressing A2B receptor; agonist NECA 30 nM (EC90); inhibition of cAMP. Also noted: host or cells: HEK-293. The class given is cell-based.
Description: as §1, §2, §3

Experiment [3] has as its target T1, A2A receptor. Put plainly: A2aR antagonism IC50, cAMP TR-FRET in HEK-293 cells, high concentration of adenosine (30 μM).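 Further: compounds added 10 min before adenosine, then 30 min stimulation at room temperature in buffer with 100 µM rolipram and 30 µM EHNA, signal read 1 h after detection reagents.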 The experiment is classed as cell-based. Particulars: HEK-293 cells expressing A2A receptor; agonist adenosine 30 μM; 2% HSA; inhibition of cAMP; read-out: A2AR IC50 (nM) (@30 μM Adenosine).
The target in experiment [4] is T2, A2B receptor. The experiment can be described thus: A2bR antagonism IC50, cAMP TR-FRET in HEK-293 cells, high concentration of adenosine (30 μM).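 Further: compounds preincubated 10 min with cells, then adenosine stimulation 30 min at room temperature in buffer with Rolipram 100 µM and EHNA 30 µM, TR-FRET read after 1 h.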 Particulars: A2BR IC50 (nM) (@30 μM Adenosine), HEK-293 cells expressing A2B receptor; agonist adenosine 30 μM; 2% HSA; inhibition of cAMP.

T1 sequence (P29274 whole entry): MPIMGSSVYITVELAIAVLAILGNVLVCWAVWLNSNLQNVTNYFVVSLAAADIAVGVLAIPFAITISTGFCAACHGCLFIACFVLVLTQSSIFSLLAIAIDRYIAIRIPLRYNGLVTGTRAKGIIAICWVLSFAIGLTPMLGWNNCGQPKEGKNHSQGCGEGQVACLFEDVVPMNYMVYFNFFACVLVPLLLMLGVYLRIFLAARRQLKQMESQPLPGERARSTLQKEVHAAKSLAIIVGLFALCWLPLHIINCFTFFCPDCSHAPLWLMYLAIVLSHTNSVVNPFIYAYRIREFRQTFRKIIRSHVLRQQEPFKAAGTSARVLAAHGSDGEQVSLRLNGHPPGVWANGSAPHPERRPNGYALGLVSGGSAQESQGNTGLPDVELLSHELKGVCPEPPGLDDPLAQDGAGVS

In the case of `Cc1cccc(C(C)Nc2nc3c(C)c(C)nn3c(N)c2C#N)n1` (stereo not drawn) [Example 1, 7-amino-2,3-dimethyl-5-{[1-(6-methylpyridin-2-yl)ethyl]amino}pyrazolo[1,5-a]pyrimidine-6-carbonitrile], the IC50 at A2A receptor [1] was 10 nM; at A2B receptor [2], 1330 nM.

`Cc1nn2c(N)c(C#N)c(NCCc3ccn(CC4CC(O)C4)n3)nc2c1Cl` (racemic) [Example 82, (+−)-7-amino-3-chloro-5-((2-(1-((3-hydroxycyclobutyl)methyl)-1H-pyrazol-3-yl)ethyl)amino)-2-methylpyrazolo[1,5-a]pyrimidine-6-carbonitrile]: the IC50 on A2B receptor [2] was found to be 7 nM; at A2A receptor [3], 110 nM; at A2B receptor [4], 2340 nM.

Regarding `CCc1c(C)nn2c(N)c(C#N)c(NCCc3ccc(OC)cn3)nc12` [Example 19, 7-Amino-3-ethyl-5-((2-(5-methoxypyridin-2-yl)ethyl)amino)-2-methylpyrazolo [1,5-a]pyrimidine-6-carbonitrile], the IC50 turned out to be 2.1 nM at A2A receptor [1] and 36 nM on A2B receptor [2].

As for `Cc1ccc(CCNc2nc3c(C)c(C)nn3c(N)c2C#N)nc1` [Example 10, 7-Amino-2,3-dimethyl-5-((2-(5-methylpyridin-2-yl)ethyl)amino) pyrazolo[1,5-a] pyrimidine-6-carbonitrile], the 50% inhibitory concentration (IC50) was determined as 2.3 nM on A2A receptor [1] and 41 nM at A2B receptor [2].

Turning to `CCc1c(C)nn2c(N)c(C#N)c(NC(C)Cc3ccccn3)nc12` (single isomer, unassigned) [Example 22, 7-Amino-3-ethyl-2-methyl-5-((1-(pyridin-2-yl)propan-2-yl)amino) pyrazolo[1,5-a]pyrimidine-6-carbonitrile], the results for the IC50 on A2A receptor [1] and on A2B receptor [2] were 2.5 nM and 2.2 nM, respectively.

As to `Cc1nn2c(N)c(C#N)c(NCCc3cccc(CO)n3)nc2c1CC1CC1` [Example 46, 7-amino-3-(cyclopropylmethyl)-5-((2-(6-(hydroxymethyl)pyridin-2-yl)ethyl)amino)-2-methylpyrazolo[1,5-a]pyrimidine-6-carbonitrile], the IC50 at A2A receptor [1] worked out at 1.9 nM.

Consider `Cc1nn2c(N)c(C#N)c(NCCc3ccn(C(C)(C)CO)n3)nc2c1C` [Example 31, 7-amino-5-({2-[1-(1-hydroxy-2-methylpropan-2-yl)-1H-pyrazol-3-yl]ethyl}amino)-2,3-dimethylpyrazolo[1,5-a]pyrimidine-6-carbonitrile], for which the IC50 on A2A receptor [1] worked out at 0.73 nM; on A2B receptor [2] it was 51 nM.

Consider `CCc1nn2c(N)c(C#N)c(NCCc3cccc(C(C)(C)O)n3)nc2c1C` [Example 43, 7-amino-2-ethyl-5-((2-(6-(2-hydroxypropan-2-yl)pyridin-2-yl)ethyl)amino)-3-methylpyrazolo[1,5-a]pyrimidine-6-carbonitrile], for which the IC50 was determined as 2.3 nM on A2A receptor [1] and 123 nM at A2B receptor [2].

Turning to `CCc1c(C)nn2c(N)c(C#N)c(NCCc3nc(C4(CO)CC4)cs3)nc12` [Example 66], the IC50 stood at 5 nM on A2A receptor [1] and 21 nM at A2B receptor [2].

For the compound `Cc1cccc(CNc2nc3c(C)c(C)nn3c(N)c2C#N)n1` [Example 6, 7-amino-2,3-dimethyl-5-{[(6-methylpyridin-2-yl)methyl]amino}pyrazolo[1,5-a] pyrimidine-6-carbonitrile], the IC50 at A2A receptor [1] was 6.6 nM; at A2B receptor [2], > 3000 nM.

For `CCc1c(C)nn2c(N)c(C#N)c(N[C@H](C)c3ccccn3)nc12` [Example 3, (R)-7-Amino-3-ethyl-2-methyl-5-((1-(pyridin-2-yl)ethyl)amino) pyrazolo[1,5-a] pyrimidine-6-carbonitrile], the IC50 was 1010 nM at A2A receptor [1] and > 3000 nM on A2B receptor [2].

`COc1cccc(CCNc2nc3c(C)c(C)nn3c(N)c2C#N)n1` [Example 12, 7-amino-5-((2-(6-methoxypyridin-2-yl)ethyl)amino)-2,3-dimethylpyrazolo[1,5-a]pyrimidine-6-carbonitrile]: the IC50 is 0.9 nM on A2A receptor [1] and 3.7 nM at A2B receptor [2].

`Cc1nn2c(N)c(C#N)c(NCc3cccc(C(C)(C)O)n3)nc2c1C` [Example 9, 7-amino-5-({[6-(2-hydroxypropan-2-yl)pyridin-2-yl]methyl}amino)-2,3-dimethylpyrazolo[1,5-a] pyrimidine-6-carbonitrile] yielded an IC50 on A2B receptor [2] of 1130 nM.

`CCc1c(C)nn2c(N)c(C#N)c(NCCc3cccc(C4CC4CO)n3)nc12` (stereo not drawn) [Example 60, 7-amino-3-ethyl-5-((2-(6-(2-(hydroxymethyl)cyclopropyl)284yridine-2-yl)ethyl)amino)-2-methylpyrazolo[1,5-a]pyrimidine-6-carbonitrile]: the figures for the IC50 on A2B receptor [2] and on A2A receptor [3] were 0.94 nM and 211 nM, respectively.

For the compound `CCc1cnn2c(N)c(C#N)c(NCCc3cc(C)n(C4(CO)CC4)n3)nc12` [Example 80, 7-amino-3-ethyl-5-((2-(1-(1-(hydroxymethyl)cyclopropyl)-5-methyl-1H-pyrazol-3-yl)ethyl)amino) pyrazolo[1,5-a]pyrimidine-6-carbonitrile], the IC50 at A2B receptor [2] was 12 nM; on A2A receptor [3] it was 83 nM; on A2B receptor [4], 3800 nM.

In turn, `CCc1c(C)nn2c(N)c(C#N)c(NCCc3cccc(OC)n3)nc12` [Example 20, 7-Amino-3-ethyl-5-((2-(6-methoxypyridin-2-yl)ethyl)amino)-2-methylpyrazolo [1,5-a]pyrimidine-6-carbonitrile] had an IC50 at A2B receptor [2] of 4 nM.

As to `Cc1nn2c(N)c(C#N)c(NCCc3cccc(C(F)(F)CO)n3)nc2c1Cl` [Example 64, 7-amino-3-chloro-5-((2-(6-(1,1-difluoro-2-hydroxyethyl)pyridin-2-yl)ethyl)amino)-2-methylpyrazolo[1,5-a]pyrimidine-6-carbonitrile], the IC50 at A2B receptor [2] was found to be 11 nM; on A2A receptor [3], 284 nM; at A2B receptor [4], 9070 nM.

For the compound `Cc1cccc(CCNc2nc3c(CC(C)C)c(C)nn3c(N)c2C#N)n1` [Example 27, 7-amino-3-(isopropylmethyl)-2-methyl-5-((2-(6-methylpyridin-2-yl)ethyl)amino) pyrazolo[1,5-a]pyrimidine-6-carbonitrile], the IC50 on A2B receptor [2] is 654 nM.

As for `CCc1c(C)nn2c(N)c(C#N)c(NCCc3ccn(CC4(CO)CC4)n3)nc12` [Example 63, 7-amino-3-ethyl-5-((2-(1-((1-(hydroxymethyl)cyclopropyl)methyl)-1H-pyrazol-3-yl)ethyl)amino)-2-methylpyrazolo[1,5-a]pyrimidine-6-carbonitrile], the IC50 at A2B receptor [2] stood at 7.3 nM; at A2A receptor [3] it was 810 nM; on A2B receptor [4] it was 2800 nM.

For `CCc1c(C)nn2c(N)c(C#N)c(NCCc3ccn(CC4CC(O)C4)n3)nc12` (stereo not drawn) [Example 85, 7-amino-3-ethyl-5-((2-(1-((3-hydroxycyclobutyl)methyl)-1H-pyrazol-3-yl)ethyl)amino)-2-methylpyrazolo[1,5-a] pyrimidine-6-carbonitrile], the results for the IC50 at A2B receptor [2], on A2A receptor [3] and on A2B receptor [4] were 3 nM, 211 nM and 1070 nM, respectively.

For the compound `CCc1c(C)nn2c(N)c(C#N)c(NCCc3ccn(C(C)CO)n3)nc12` (stereo not drawn) [Example 81, 7-amino-3-ethyl-5-((2-(1-(1-hydroxypropan-2-yl)-1H-pyrazol-3-yl)ethyl)amino)-2-methylpyrazolo[1,5-a]pyrimidine-6-carbonitrile], the figures for the IC50 at A2B receptor [2], on A2A receptor [3] and at A2B receptor [4] were 3.6 nM, 63 nM and 1050 nM, respectively.

On to `CCc1c(C)nn2c(N)c(C#N)c(NC(C)Cc3cccc(C)n3)nc12` (racemic) [Example 24, 7-Amino-3-ethyl-2-methyl-5-((1-(6-methylpyridin-2-yl)propan-2-yl)amino) pyrazolo[1,5-a]pyrimidine-6-carbonitrile], for which the IC50 at A2B receptor [2] was 2.5 nM.

On to `CCc1c(C(F)F)nn2c(N)c(C#N)c(NCCc3cccc(C4CC4CO)n3)nc12` (stereo not drawn) [Example 59, 7-amino-2-(difluoromethyl)-3-ethyl-5-((2-(6-(2-(hydroxymethyl)cyclopropyl)pyridin-2-yl)ethyl)amino)pyrazolo[1,5-a]pyrimidine-6-carbonitrile], for which the values for the IC50 on A2B receptor [2] and on A2A receptor [3] were 9 nM and 1080 nM, respectively.

For the compound `Cc1nn2c(N)c(C#N)c(NCCc3ccn(C4CCC4CO)n3)nc2c1Cl` (stereo not drawn) [Example 67, 7-amino-3-chloro-5-((2-(1-(2-(hydroxymethyl)cyclobutyl)-1H-pyrazol-3-yl)ethyl)amino)-2-methylpyrazolo[1,5-a]pyrimidine-6-carbonitrile], the IC50 on A2A receptor [1] came to 0.1 nM; at A2A receptor [3], 50 nM; on A2B receptor [4], 1880 nM.

On to `Cc1c(C2CC2)nn2c(N)c(C#N)c(NCCc3cccc(C(C)(C)O)n3)nc12` [Example 47, 7-amino-2-cyclopropyl-5-((2-(6-(2-hydroxypropan-2-yl)pyridin-2-yl)ethyl)amino)-3-methylpyrazolo[1,5-a]pyrimidine-6-carbonitrile], for which, on A2A receptor [1], the IC50 was 7.2 nM.

The record behind these values is US12577247B2 (BUGWORKS RESEARCH, INC., priority 2021, dated 2026).
